The values that follow come from PMC7508583, “Discovery and Preclinical Development of Antigiardiasis Fumagillol Derivatives” (Antimicrobial Agents and Chemotherapy, 2020).

The structures appear in SMILES notation. Where two headings read alike, the source gives them in different places.

One series relates to Caco-2 cell monolayers. The series is described as follows: in vitro. The conditions noted are these: human, Caco-2, 120 min, 10 µM, pH 7.4. From the text: Next, we tested the permeation of the compounds across polarized Caco-2 cell monolayers, a method that is widely used as an in vitro model of the human small intestinal mucosa to predict the absorption of orally administered drugs ([63], [64]). With noninvasive intestinal infections, there is no need to establish a high plasma concentration. Since a high rate of uptake through the host gut lining could increase compound toxicity, we sought to reduce gut absorption. […] Both apical-to-basal and basal-to-apical permeation values were measured to obtain information about efflux. […] The efflux machinery is currently unknown.
Passage 36 Caco-2 cells were used. The cells were cultured in Dulbecco’s modified Eagle’s medium (DMEM; 5 ml of 100 mM sodium pyruvate, 5 ml of 100× nonessential amino acids, 5 ml of penicillin-streptomycin, and 100 ml of heat-inactivated fetal bovine serum added to 385 ml of DMEM aseptically and mixed thoroughly), pH 7.4, at 37°C in 5% CO2. DMEM (250 μl) was added to the basal compartment of 96-well multiscreen Caco-2 cell plate consisting of high-pore-density polycarbonate (Millipore) with a 0.4-μm pore size and a 0.11-cm^2 active membrane area. The cells were seeded at a density of 12,000 cells/well (0.16 × 10^6 cells/ml) in the apical wells, with one well containing only medium as blank. The Caco-2 cell plate was placed in a CO2 incubator at 37°C for cell proliferation. On the day of assay, the medium was removed, washed twice with Hanks balanced salt solution (HBSS) buffer supplemented with 2% bovine serum albumin (BSA), pH 7.4, and incubated with the HBSS buffer for 30 min at 37°C. Wells with transepithelial electrical resistance values of greater than 230 Ω · cm^2 were selected for the experiments. […] The assay was performed in duplicate.
Seventy-five microliters of the test compounds was added to the apical wells, and 250 μl of HBSS buffer with 2% BSA was added to the basal wells. The plate was incubated in a CO2 incubator with shaking on a plate shaker at 150 rpm for 120 min, after which 25 μl of the basal samples was collected and processed.
Two hundred fifty microliters of test compounds was added to the basal wells, and 75 μl of HBSS buffer with 2% BSA was added to the apical wells. The plate was incubated in a CO2 incubator with shaking on a plate shaker at 150 rpm for 120 min, after which 25 μl of the apical samples was collected and processed.
For sample processing, a single-point calibration curve in HBSS buffer with 2% BSA was used. Donor samples were diluted 1:1 with HBSS containing 2% BSA, and receiver samples were diluted with 1:1 HBSS buffer and precipitated with 200 μl of acetonitrile containing internal standard. The samples were vortexed for 5 min at 1,000 rpm and centrifuged at 4,000 rpm for 10 min. One hundred microliters of the supernatant was diluted with 200 μl of water and analyzed by LC-MS/MS (with a Shimadzu ultrafast liquid chromatograph and an API 4000 LC-MS/MS system).
The apparent permeation coefficients (Papp) were calculated as Papp = (dQ/dT) × (1/C0) × (1/A), where dQ is the amount permeated to the receiver compartment of the 96-well plate, dT is the time of compound incubation, C0 is the initial compound concentration in the donor compartment of the well, and A is the surface area of the monolayer.

For series [1], the system named is G. lamblia GS trophozoites. The series is described as follows: Mouse giardiasis model efficacy. Type of series: in vivo, Giardia lamblia. The conditions noted are these: for ED50: Giardia duodenalis, 96 h; for EC50, 4-day single-daily-dose treatment regimen: Fig. 5. The method, then: The C57BL/6J mice were infected with G. lamblia GS trophozoites, treated for 4 days, and euthanized as described in Materials and Methods.
Compound efficacy was evaluated in the mature mouse giardiasis model reported previously ([18], [66]). Fifteen 4-week-old C57BL/6J female mice (The Jackson Laboratory, Bar Harbor, ME) were infected with G. lamblia GS or H7 trophozoites. For each experiment, the trophozoites (500,000 trophozoites suspended in 200 μl of TYI-S-33 medium) were administered by oral gavage to 15 mice. […] The remaining 5 untreated mice served as controls. The compounds were administered by oral gavage in 200 μl of TYI-S-33 medium supplemented with 0.5% DMSO. All mice were euthanized on day 7. The University of Maryland College Park IACUC approved the animal studies.
Two inches of the upper small intestine were dissected and washed with 2 ml of medium supplemented with antibiotics to produce axenized cultures (1 mg/ml each piperacillin and moxalactam and 10 μg/ml each vancomycin and polymyxin B, which is a modified mixture compared with that used earlier). The harvested small intestines were opened longitudinally and minced in a petri dish containing 10 ml of ice-chilled medium. The plates were placed on ice for 30 min to allow the trophozoites to detach from the intestine, and the entire content of each petri dish was transferred into a 15-ml glass tube, the volume was adjusted to 14 ml by adding the antibiotic-containing medium, and the tube was vigorously vortexed to separate the trophozoites from the intestine debris. For the following 2 h, the tubes were kept at 37°C to allow trophozoite attachment to the wall of the glass tube, after which the medium containing the intestine debris was decanted and replaced by fresh medium. The tubes were kept at 37°C for another 15 min, followed by a second medium replacement. The tubes were kept at 37°C for 6 days for proliferation. Trophozoite growth was determined once daily by monitoring the ATP content using the ATPlite reagent.
The proliferation measurements were used to calculate growth curves and the trophozoite load of drug-treated mice compared with that of untreated mice. The trophozoite load was quantified by calculating the initial population from the growth curves and fitting the luminescence or the trophozoite counting data to the Malthusian model of exponential growth, Nt = N0e^rt, where Nt is the signal of the population at time t, r is the growth rate, and N0 is the signal of the initial population at the end of treatment. The percentage of the load relative to the N0 for untreated mouse samples was determined. […] The curve was fit with a variable slope using GraphPad Prism (version 8.2.1) software (GraphPad Software Inc., La Jolla, CA).

On the set-up of series [2]: method as in earlier work. The following applies: degraded from 98% purity; Sanofi; cited from earlier work.
Setting [3] is: 13.7 mg/kg, mouse giardiasis model.

For `COC1C(OC(=O)NC(=O)CN2CCOCC2)CCC2(CO2)C1C1(C)OC1CC=C(C)C` (stereo not shown) [Compound 3], the “Caco-2 cell permeation as % of the permeation of fumagillin” value with Caco-2 cell monolayers is listed as 62%.
Take `CO[C@@H]1[C@H](OC(=O)/C=C/C=C/C=C/C=C/C(=O)O)CC[C@]2(CO2)[C@H]1[C@@]1(C)O[C@@H]1CC=C(C)C` [Fumagillin, reference compound]: in series [1] (setting [3]), the cure of mice result is “none of the mice were cured” and the “trophozoite load remaining compared with untreated control mice” value was determined as 7%. The compound also had a median effective dose (ED50) in series [1] (po) of 0.247 mg/kg. The “EC50, 4-day single-daily-dose treatment regimen” value in series [1] (mouse giardiasis model) was found to be 0.247 mg/kg/day. For the same compound, the “purity after storage at 40°C for 2 weeks at ambient humidity” value in series [2] is 85%.
On to `CO[C@@H]1[C@H](OC(=O)Nc2ccc(C(=O)O)cc2)CC[C@]2(CO2)[C@H]1[C@@]1(C)O[C@@H]1CC=C(C)C` [Compound 9, 4-(((((3R,4S,5S,6R)-5-methoxy-4-((2R,3R)-2-methyl-3-(3-methylbut-2-en-1-yl)oxiran-2-yl)-1-oxaspiro[2.5]octan-6-yl)oxy)carbonyl)amino)benzoic acid], for which, in series [1] (C57BL/6J mice infected with G. lamblia GS, oral, once daily for 4 days), the “fully curative dose (100% effective dose, ED100)” value is 6.6 mg/kg. Also, in series [1] (C57BL/6J mice infected with G. lamblia GS, oral, once daily for 4 days, read-out: ED50), the ED50 was 0.064 mg/kg. Moreover, the “EC50, 4-day single-daily-dose treatment regimen” value in series [1] (mouse giardiasis model) was determined as 0.064 mg/kg/day. Besides, in the series with Caco-2 cell monolayers, the “Caco-2 cell permeation as % of the permeation of fumagillin” value is 53%.
